In ChEMBL document CHEMBL1130651, “Synthesis of novel C7-aryl substituted pyrrolo[2,1-c][1,4]benzodiazepines (PBDs) via pro-N10-Troc protection and Suzuki coupling” (Bioorg Med Chem Lett, 1998):

How the values were obtained:
[1] = system: A2780; experiment: Compound was evaluated for cytotoxicity against A2780 cell line; format: functional, cell-based; details: Homo sapiens
[2] = system: CH1; experiment: Compound was evaluated for cytotoxicity against CH1 cell line; format: functional, cell-based; details: Homo sapiens

Structure (SMILES) | IC50 [1] | IC50 [2]
COc1ccc(-c2ccc3c(c2)C(=O)N2CCC[C@H]2C=N3)cc1 | 560 nM | 1350 nM
O=C1c2cc(-c3ccccc3)ccc2N=C[C@@H]2CCCN12 | 1150 nM | 1500 nM
O=C1c2cc(-c3cccc([N+](=O)[O-])c3)ccc2N=C[C@@H]2CCCN12 | 34500 nM | 22500 nM
COc1ccccc1-c1ccc2c(c1)C(=O)N1CCC[C@H]1C=N2 | 1180 nM | 4800 nM
Cc1ccc(-c2ccc3c(c2)C(=O)N2CCC[C@H]2C=N3)cc1 | 580 nM | 1500 nM
O=C1c2cc(-c3ccc(F)cc3)ccc2N=C[C@@H]2CCCN12 | 660 nM | 4700 nM
